In patent US20250009763A1, “METHODS FOR EXTENDING LIFESPAN AND/OR DELAYING AGING” (priority 2023, published 2025):

What was measured:
SIRT1 = target: T1, SIRT1 (Homo sapiens, UniProt Q96EB6); test: Acetylation of p53 (K382) via UV irradiation, western blot, U2OS cells; assay type: cell-based; conditions: 10-100 μM PN6, FIGS. 2C-2D
T1 construct: endogenous in cells; host or cells: U2OS cells; IMR90 cells
T1 sequence (Q96EB6 1-747): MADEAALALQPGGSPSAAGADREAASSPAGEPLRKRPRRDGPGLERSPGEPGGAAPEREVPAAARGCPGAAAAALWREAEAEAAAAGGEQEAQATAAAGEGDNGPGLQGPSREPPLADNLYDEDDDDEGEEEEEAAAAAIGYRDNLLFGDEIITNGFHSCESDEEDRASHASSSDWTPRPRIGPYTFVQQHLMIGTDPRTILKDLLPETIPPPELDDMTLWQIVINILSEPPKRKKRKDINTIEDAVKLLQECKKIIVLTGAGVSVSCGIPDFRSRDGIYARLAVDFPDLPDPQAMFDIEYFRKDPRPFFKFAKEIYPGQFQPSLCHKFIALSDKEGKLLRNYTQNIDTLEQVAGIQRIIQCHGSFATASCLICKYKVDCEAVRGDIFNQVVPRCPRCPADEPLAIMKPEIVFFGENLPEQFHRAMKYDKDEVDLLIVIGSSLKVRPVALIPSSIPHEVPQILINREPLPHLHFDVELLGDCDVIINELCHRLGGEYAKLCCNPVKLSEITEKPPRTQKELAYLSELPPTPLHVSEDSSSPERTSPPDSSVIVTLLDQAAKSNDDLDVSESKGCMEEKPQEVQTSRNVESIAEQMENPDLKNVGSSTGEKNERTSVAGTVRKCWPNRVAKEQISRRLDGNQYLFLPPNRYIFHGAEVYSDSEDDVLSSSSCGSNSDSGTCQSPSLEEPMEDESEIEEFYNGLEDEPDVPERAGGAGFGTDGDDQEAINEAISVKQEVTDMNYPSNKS
Description: U2OS cells (1.2×10^5 cells/dish) or IMR90 cells (3.0×10^5 cells/dish) were seeded into a 3.5 cm culture dish, and incubated with 0, 10, 25, 50, or 100 μM PN6 for 16 hours, before subjected to UVB irradiation at 7.5 mJ/m^2 (for U2OS cells) or 5.0 mJ/m^2 (for IMR90 cells) for 4 hours.
Cells were harvested with a 1.25× Laemmli buffer and lysed in RIPA lysis buffer containing 1% of Triton X-100 and a protease inhibitor cocktail, and total protein concentrations were measured with a protein assay kit. Proteins in the samples of the lysates with the same amounts of total protein were separated by sodium dodecyl sulfate polyacrylamide gel electrophoresis (SDS-PAGE) (10% polyacrylamide gels) and analyzed by immunoblotting. Primary antibodies against p53ac (K382) (1:1,000), p21 (1:1,000), and 3-actin (1:200,000) were applied to detect the corresponding proteins. Horseradish peroxidase (HRP)-conjugated secondary antibodies against mouse IgG were then incubated with the membranes, and proteins were visualized by chemiluminescence according to the manufacturer's instructions. Protein quantification was performed by software.

aged C57BL/6J mice [1] = test: Metabolic breath analysis test; assay type: in vivo, mouse; conditions: versus SD
Description: The metabolic breath analysis test was carryout out using the OxyletPro System. The male C57BL/6J mice fed a standard rodent chow with or without 50 mg/kg PN6 for 22 weeks (at 72 weeks of age; mid-term) were placed in the metabolic cages of the OxyletPro System for a 24-hour habituation period before actual recordings and remained in the cages for the following 48 hours. The OxyletPro System was equipped with an air supply and switching unit that provided independent flow control to the cage and collected the products produced therein. The gas analyzer was connected in tandem to the OxyletPro System for O2 and CO2 concentration analyses, from which the oxygen consumption (VO2), the carbon dioxide production (VCO2), and the energy expenditure (EE) were automatically calculated. SD, n=12; PN6, n=7.

aged C57BL/6J mice [2] = test: Visible changes in appearance of aged mice; assay type: in vivo, mouse; conditions: chow containing 50 mg/kg PN6
Description: All animal procedures were conducted under protocols (Protocol #CGU108-134) that complied with relevant regulations and approved by Research Guidelines for the Care and Use of Laboratory Animals, Chang Guan University. Male C57BL/6J male mice (at 34 weeks of age) obtained from National Laboratory Animal Center (NLAC) were maintained at 23±1° C. and at humidity of 45-70% with a 12 hour dark/light cycle (7:00 am/pm lights on/off). After reaching 50 weeks of age, the mice were randomly divided into two groups: Group I (SD), fed a standard rodent chow (n=27); and Group II (PN6), fed a standard rodent chow containing 50 mg/kg PN6 (n=10). Animals had ad libitum access to food and water throughout the study (the mice were sacrificed at 131 weeks of age), during which their body weight and food intake were measured weekly.

aged C57BL/6J mice [3] = test: Rearing behavior; assay type: in vivo, mouse; conditions: long-term (111 weeks of age), old-aged mice; FIG. 4D
Description: The rearing behavior of the male C57BL/6J mice fed a standard rodent chow with or without 50 mg/kg PN6 for 22 weeks (at 72 weeks of age; mid-term) or for 61 weeks (at 111 weeks of age; long-term) was analyzed using the OxyletPro System, in which the mice were housed individually in metabolic cages that were equipped with infrared light beam frames surrounding them. Mid-term: SD, n=16; PN6, n=8; long-term: SD, n=12; PN6, n=8.

## CCC(CC[C@@H](C)C1CCC2C3CC(=O)[C@H]4C[C@@H](O)CC[C@]4(C)C3CC[C@@]21C)C(C)C (stereo in doubt) [PN6, (24S)-3β-hydroxy-5α-stigmastan-6-one]
SIRT1
  degree of acetylation of P53 at K382: decreased in a dose-dependent manner
Aged C57BL/6J mice [1]; FIG. 4L
  rate of O2 consumption: significantly higher
Aged C57BL/6J mice [1]; FIG. 4M
  rate of CO2 elimination: significantly higher
Aged C57BL/6J mice [1]; FIG. 4N
  respiratory quotient: higher
Aged C57BL/6J mice [1]; FIG. 4O
  energy expenditure: higher
Aged C57BL/6J mice [2]
  Hair graying: 25%
  Kyphosis: 13%
  Muscle weakness: 13%
Aged C57BL/6J mice [3]
  rearing behavior (exploratory activity): increase the exploratory activity
